According to a melting point compilation (Tetko et al.; mined from patent text by program, amines drawn as free bases though some values may be those of a salt):

Row | melting point | Structure (SMILES)
1 | 92 to 93 °C | COc1cc(OC)nc(Cc2nscc2C(=O)N(C)c2ccccc2)n1
2 | 308 °C | COc1cc2[nH]c(=O)c(=O)n(C)c2cc1OC
3 | 194 to 196 °C | COCCc1nc2c(N)nc3ccccc3c2n1CCCNC(=O)N1CCOCC1
4 | 223 to 225 °C | Cn1c(-c2ccc3ccccc3c2)n[nH]c1=S
5 | 187 °C | CC#CCOc1ccc(S(=O)(=O)C(C(=O)NO)c2ccc(Br)cc2)cc1 (stereo not given)
6 | 92 to 93 °C | O=C(Nc1ccccc1)c1cccc(Oc2cccc(C(F)(F)F)c2)n1
7 | 65 to 67 °C | FC(F)=C(F)CC(=S)Nc1ccccc1
8 | > 300 °C | CCCc1nn(C)c2c(=O)[nH]c(Cc3ccc4[nH]c(=O)ccc4c3)nc12
9 | 203 to 205 °C | CC1(C)CCn2c(nc(-c3ccncn3)cc2=O)N1CC(=O)c1ccccc1
10 | 75 to 76 °C | CC(O)CCCCc1ccc(S(N)(=O)=O)s1 (stereo not given)
11 | 57 to 67 °C | COc1ccc(C(O)(Cc2ccncc2)c2cccs2)cc1OC1CCCC1 (stereo not given)
12 | > 300 °C | O=S(=O)(O)c1ccc(Nc2ncnc3ccc(Cl)cc23)cc1
13 | > 300 °C | Sc1cc(Cl)nc2ncnn12
14 | 198 °C | C(=C1CC(c2ccccc2)Cc2ccccc21)c1cncn1Cc1ccccc1 (stereo not given)
15 | 172 °C | CS(=O)(=O)c1ccc(-c2cc(F)c(F)cc2-c2ccc(F)c(Cl)c2)cc1
16 | 289 to 290 °C | Cc1cc2oc(C(=O)O)cc(=O)c2c(C)c1Cl
17 | 59 to 61 °C | OCC1=Cc2cccc(OCc3ccccc3)c2CC1
18 | 104 °C | CCOC(=O)Oc1ccc(S(=O)(=O)N2c3c(C)cccc3-n3cccc3C2CC)cc1 (stereo not given)
19 | 125 to 126 °C | O=c1cc(C2CCCC2)oc2ccc(OCCCCCCCl)cc12
20 | 200 °C | COc1cc(C)c(OC)c(OC)c1-c1csc(NC(=O)c2cc3ccccc3[nH]2)n1
21 | 142 to 144 °C | CCOC(=O)c1nnc(S)n1Cc1ccc(OC)cc1
22 | 216 to 218 °C | CCNc1nc(-c2ccc(NC(=O)NCc3cccnc3)cc2)ccc1C(=O)O
23 | 31 to 32 °C | CC(=O)SC(C(C)=O)c1ccccc1 (stereo not given)
24 | 120 to 122 °C | CCSc1cc(C)nc(SCC)c1NC(=O)CN1CCN(CCSc2nc3c(C)c(Cl)cc(C(C)C)c3o2)CC1

Row | melting point | Structure (SMILES)
25 | 265 to 267 °C | O=C1C(=O)c2ccccc2C2=C1SCC1(CCN(S(=O)(=O)c3c(Cl)nc4sccn34)CC1)O2
26 | 115 to 116 °C | O=C(SC(Cn1ccnc1)c1ccc(Cl)cc1Cl)c1ccccc1 (stereo not given)
27 | 178 to 179 °C | O=C(SSCCSSC(=O)N1CCOCC1)N1CCOCC1
28 | 129 to 131 °C | COC(=O)c1ccc(C2(C(=O)Oc3ccc(C(=O)NO)cc3)CCCCC2)cc1
29 | 200 to 202 °C | O=C1N(c2ccccc2Br)Cc2cnc(Nc3ccccc3)nc2N1CC1CCCCC1
30 | 92 to 94 °C | Cc1nc(-c2ccc(-c3ccc(C(=O)Nc4ccc5c(c4)OC(CN(C)C)CO5)cc3)c(C)c2)no1 (stereo not given)
31 | 180 to 181 °C | CC(C)[C@H](S)C(=O)NC(C)(C)C(=O)N[C@@H](Cc1ccc(O)cc1)C(=O)O
32 | 75 to 86 °C | CCCN1CCC(Cc2ccc3c(c2)c(Cc2ccc(C(=O)O)cc2OC)cn3CCC)C1=O (stereo not given)
33 | 112 to 117 °C | CCN(CC)S(=O)(=O)c1ccc(C=CC(C)(O)C(F)(F)F)cc1 (stereo not given)
34 | 195 to 196 °C | OCc1cc(OCc2ccccc2)nn1C1CCCCC1
35 | 263 °C | CN1C(C(=O)Nc2cc(Cl)ncn2)=C(O)c2ccc3ccccc3c2S1(=O)=O
36 | 97 to 98 °C | CCCC(C)(C)c1nc(CC(=O)O)c(C)o1
37 | 109 to 115 °C | COc1ccc(-c2c(N(C)C(C)C)c(=O)c2=O)cc1
38 | 126 to 128 °C | N#CC1Cc2cc3cc[nH]c3cc21 (stereo not given)
39 | > 300 °C | COc1ccc2ncc(S(=O)(=O)N(C)C)c(O)c2c1
40 | 177 to 179 °C | CC(C)(C)C(=O)Nc1ccc(Cl)cc1C1(O)CCN(C/C=C/c2ccc(Cl)cc2)CC1
41 | 193 to 197 °C | Nc1ncc(-c2ccc(F)cc2)nc1C(=O)Nc1cccnc1
42 | 166 to 167 °C | Cn1nc(N=Cc2ccncc2)nc1NCCCOC1=CCC=C(CN2CCCC2)C1
43 | 207 to 209 °C | OCc1csc(Nc2ccc(Br)cn2)n1
44 | 130 to 132 °C | CC(=O)N1CCC(c2nn(-c3ccccc3)c3cc(Cl)ccc23)CC1
45 | 116 to 118 °C | O=C(/C=C/c1ccccc1Cl)/C=C/c1ccccc1Cl
46 | 218 °C | CN1CCN(c2cccc3ccc(C(O)(c4ccccc4)c4ccccc4)cc23)CC1
47 | 73 to 77 °C | CCCCCCCCCCCCCCCCCC(=O)NC(=O)OCc1nc(C(C)C)c(Sc2cc(Cl)cc(Cl)c2)n1Cc1ccncc1
48 | 96 to 98 °C | ON=C1CCCOc2ccccc21

Row | melting point | Structure (SMILES)
49 | 112 to 114 °C | CCCCNC(=O)[C@H](C)C[C@H](O)[C@H](CC1CCCCC1)NC(=O)[C@H](Cc1cscn1)NC(=O)[C@@H](CC(=O)N(C)Cc1ccccc1)Cc1ccc(OC)cc1
50 | 235 to 240 °C | N#Cc1ccc(Nc2ccc(C(F)(F)F)cc2Nc2ccc(C#N)cc2C(=O)O)c(C(=O)O)c1
51 | 95 to 97 °C | CCCc1nn(-c2ccc(C(F)(F)F)cn2)cc1CCCCOc1nn(C)cc1CC(=O)O
52 | 133 °C | CC(=O)c1ccc(N2CCC(N(C)Cc3ccc(F)cc3)CC2)cc1
53 | 189 to 192 °C | Cn1nnc(-c2cn(C)c3ccccc3c2=O)n1
54 | 61 to 64 °C | Cc1ccccc1-c1ccc(C(=O)N2Cc3ccc(C(=O)NCc4csc(-c5ccc(Cl)cc5)n4)n3Cc3ccccc32)cc1C
55 | 68 to 70 °C | FC(F)(F)c1cccc(Sc2cc(Br)nc(Br)c2)c1
56 | 274 to 275 °C | Cc1noc(C)c1C(=O)N1CCC2(CC1)CSC1=C(O2)c2ccccc2C(=O)C1=O
57 | 243 to 245 °C | CN1C(C2CCCCC2)Nc2ccc(S(=O)(=O)N3CCOCC3)cc2S1(=O)=O (stereo not given)
58 | 263 to 265 °C | CC1(C)CC(=O)c2c(N3CCC3)sc(-c3cc[nH]n3)c2C1
59 | 217 to 218 °C | CCn1cc(C(=O)O)c(=O)c2cc(F)c(N3CCC(CN)C3)nc21 (stereo not given)
60 | 199 to 202 °C | ON=C1CCN(CC2c3ccccc3CCc3ccccc32)CC1
61 | 178 to 180 °C | Cc1ccc(-c2ccc3c(c2)C=C(C(=O)Nc2ccc(CN4CCSCC4)cc2)CC3)cc1
62 | 139 to 141 °C | S=C(NCCCCN(Cc1ccc(Cl)c(Cl)c1)c1ccc(Br)cn1)NCCCn1ccnc1
63 | 149 to 151 °C | CCCCc1ccc(N2C(=O)CN(Cc3ccccc3)C2=S)cc1
64 | 114 to 116 °C | CC1Cc2ccccc2CN(CO)C1=O (stereo not given)
65 | 92 to 95 °C | Cc1ccccc1Cn1c(=O)c2c(N3CCN(C)CC3)cc(Cl)cc2n(Cc2ccccc2)c1=O
66 | 201 to 204 °C | CN1C(=O)CCC2CC(C3=NNC(=O)CC3CO)=CC=C21 (stereo not given)
67 | 123 to 129 °C | CCCCCCCCCC(O)CNCCCCCCNCC(O)CCCCCCCCC (stereo not given)
68 | 282 to 286 °C | COc1ccc(N2C(=O)N(c3cccc(C(N)=O)c3)c3nc(Nc4ccccc4)ncc3C2C)c(F)c1 (stereo not given)
69 | 165 °C | COc1ccc(CCN(C)CCOc2ccc(NC(=O)c3cccc4c(=O)c5ccccc5[nH]c34)cc2)cc1
70 | 163 °C | COc1nc(NC(=O)NS(=O)(=O)c2c(C)cccc2OC)nc(OC)n1
71 | 56 to 58 °C | CCOC(=O)C(NC(=O)CSC)C(=O)OCC
72 | 140 °C | C[C@H]1C[C@@](O)(c2cnc(Sc3ccc4c(c3)CC(=O)N4C)s2)CCO1

Row | melting point | Structure (SMILES)
73 | > 250 °C | Nc1c2c(nc3ccccc13)CCc1cn(N)nc1-2
74 | 18 °C | CC1(C)OCC(CCBr)CO1
75 | 155 to 156 °C | CC1=C(C(=O)c2ccc(C(F)(F)F)cc2)C(=O)C2C=CC=CC2C1=O (stereo not given)
76 | 95.5 to 97 °C | CCC(C(=O)OC)(C(=O)OC)C(Cc1cc(Cl)ccc1[N+](=O)[O-])c1ccc(OC)cc1 (stereo not given)
77 | 81 to 82 °C | CCC(COC)NC(=O)C(C)(C)c1ccc(-c2ccccc2)c(F)c1 (stereo not given)
78 | 217 to 218 °C | CCN(CC)c1cc2c(cc1C)Nc1c(cc(NC(C)=O)c3ncn(C)c13)O2
79 | 182 to 184 °C | COc1ccc(NN=C(Sc2ccc(C#N)cc2)C(C)=O)cc1
80 | 285 to 287 °C | COc1cc(Cc2cnc(N)nc2N)cc2cccnc12
81 | 118 °C | O=[N+]([O-])c1cccc(Oc2cc(Oc3cccc([N+](=O)[O-])c3)cc(C(F)(F)F)c2)c1
82 | 174 to 176 °C | CC(C)(C)OC(=O)Nc1cc(N2CCOCC2)c(C#Cc2ccccc2)cc1N
83 | 123 to 125 °C | CCOC(=O)C1Cc2c(c(Cl)cc3c(-c4ccccc4)noc23)O1 (stereo not given)
84 | 301 to 303 °C | O=c1[nH]c2ccccc2n2cc(-c3ccccc3)cc12
85 | 95 to 97 °C | COc1ccc(Cc2nc3cccc(CCCO)c3o2)cc1OC
86 | 104 to 106 °C | CCOC(=O)CN(C)C(=O)CCN(C(=O)c1ccc(Cl)cc1)c1ccc(OC)cc1
87 | 127 °C | COc1cccc(CN=C(Cc2ccccc2)N2CC3C(=O)CCC(c4ccccc4)(c4ccccc4)C3C2)c1 (stereo not given)
88 | 185 to 187 °C | CCc1cnc(N=Cc2cnc([N+](=O)[O-])n2C)n1CCO
89 | 74.7 °C | CC(C)(C)OC(=O)CN1CCN2C(=O)N(c3cc(Cl)cc(Cl)c3)C(=O)C2(Cc2ccc(Br)cc2)C1 (stereo not given)
90 | 129 to 130 °C | CC(C)Cc1nc2ccc(Br)cc2c(-c2ccccc2)c1CN
91 | 196 to 198 °C | CC1(C#CC2(C(F)(F)F)C=NC(=O)Nc3ccc(Cl)cc32)CC1 (stereo not given)
92 | 264 to 266 °C | O=C(O)c1ccc2cccnc2c1O
93 | 112 to 114 °C | N#CCSc1nc2ccc(Cl)nc2s1
94 | 123 to 124 °C | CS(=O)(=O)Oc1ccc([N+](=O)[O-])c(O)c1

Row | Structure (SMILES) | melting point
95 | N#C[C@@H]1CCCN1C(=O)CCl | 53 to 57 °C
96 | CCCN(CCC)C1Cc2cc(C)cc3ncn(c23)C1 (stereo not given) | 91 to 94 °C
97 | CC1CNCCC1n1c(=O)[nH]c2cc(Cl)ccc21 (stereo not given) | 199 °C
98 | Cc1ccc(S(=O)(=O)NP(N)(N)=O)cc1 | 114 to 118 °C
99 | CNC(=O)c1nc(SC)n2c1CN=C(c1ccccc1Cl)c1cc(Cl)ccc1-2 | 224 to 227 °C
100 | CO[C@@H]1C[C@H](C)N(c2ccc(C#N)c3ccccc23)C1 | 88 to 89 °C
